Where two headings read alike, the source gives them in different places.
Key:
[1] = Stability of ZincBY-4 over 12 h by fluorescence intensity; format: physicochemical; conditions: for retention of fluorescence intensity after 12 hours: 10 mM glutathione (GSH); for fluorescence intensity after 12 hours: absence of GSH
Experimental: (§1) Aqueous solutions were prepared by using de-ionized water with resistivity […], obtained using a Milli-Q water purification system. In order to properly compare the photophysical properties of ZincBY-2, ZincBY-3, and ZincBY-4 to ZincBY-1, the photophysical properties of ZincBY-1 we remeasured. […] Stock solutions of ZincBY-1, ZincBY-2, ZincBY-3, and ZincBY-4 were prepared at concentrations of 5 mM and stored at −20° C. in aliquots that were used immediately after thawing for each experiment. Unless otherwise stated, all spectroscopic methods were conducted in aqueous buffer containing 50 mM HEPES (pH 7.2) and 0.1 M KNO3. UV-visible spectra were acquired on a PerkinElmer Lambda 650 UV/Vis spectrophotometer using quartz cuvettes from Starna (1 cm path length, 10 cm path length used in extinction coefficient and quantum yield determination). Fluorescence spectra were acquired using a PerkinElmer LS 55 fluorescence spectrophotometer. For measurements containing zinc, 99.0% ZnNO3 hexahydrate (final concentration 5 μM) was used. For experiments analyzing apo probes, N,N,N′,N′-Tetrakis(2-pyridylmethyl)ethylenediamine (TPEN) (final concentration 5 μM) was added to solution. Quantum Yield and Extinction Coefficient Determination. Quantum yields for apo and holo ZincBY-1, ZincBY-2, ZincBY-3, and ZincBY-4 were determined by plotting absorbance vs. fluorescence intensity of solutions containing ZincBY-1, ZincBY-2, ZincBY-3, or ZincBY-4 at probe concentrations ranging from 50-250 nM. […] Fluorescein dissolved in 0.1 N NaOH was used as the quantum yield standard, using a literature-determined quantum yield of 0.95.^3 For all fluorophore solutions, fluorescence excitation was set at 490 nm and fluorescence emission was integrated from 510 nm to 650 nm. […] Fluorescence spectra were recorded using zinc probes (ZincBY-1, ZincBY-2, ZincBY-3, or ZincBY-4; 200 nM) and ZnSO4 (various concentrations). […] Free Zn^2+ was calculated according to a previously reported method (Ref. B4; incorporated by reference in its entirety). […] The fluorescence spectra of zinc probes (ZincBY-2, ZincBY-3, or ZincBY-4; 200 nM) wasere measured at various pH values (4.5-11). […] The fluorescence spectra of zinc probes (ZincBY-2, ZincBY-3, or ZincBY-4; 200 nM) were measured in the presence an excess of metal ion including 1 mM KNO3, 1 mM NaNO3, 1 mM CaSO4, 1 mM MgSO4, 15 μM MnSO4, 15 μM (NH4)2Fe(SO4)2, 15 μM NH4Fe(SO4)2, 15 μM CoSO4, 15 μM NiSO4, 15 μM CuSO4, 15 μM [Cu(CH3CN)4]PF6, 15 μM CdSO4, 15 μM Hg(NO3)2, 15 μM Pb(NO3)2, or 15 μM ZnSO4. The fluorescence spectra were compared to that of ZincBY-2 (200 nM), ZincBY-3 (200 nM), or ZincBY-4 (200 nM) in the presence of 10 μM TPEN. […] A log P value for each probe was determined by agitating nanomolar solutions of each probe in a 1:1 mixture of HEPES buffer and 1-octanol. […]

[2] = Photophysical properties in solvents of varied dielectric constants (water/acetonitrile); format: physicochemical
Experimental: as §1

[3] = cited from earlier work; for Brightness (ε*Φ/1000) / Extinction Coefficient (ε) / Quantum Yield (Φ) / λAbs (max) / λEm (max): values reported in Que et al.

Row | SMILES | retention of fluorescence intensity after 12 hours ([1]; apo) [%] | fluorescence intensity after 12 hours ([1]; apo) [%] | retention of fluorescence intensity after 12 hours ([1]; holo) [%] | fluorescence intensity after 12 hours ([1]; holo) [%] | emission maximum wavelength as the dielectric constant decreases ([2]; apo) | fluorescence intensity as the dielectric constant changes ([2]; apo) | emission maximum wavelength as the dielectric constant decreases ([2]; holo) [nm] | fluorescence intensity as the dielectric constant changes ([2]; holo) | Brightness (ε*Φ/1000) ([3]; Apo) | Extinction Coefficient (ε) ([3]; Apo) | Quantum Yield (Φ) ([3]; Apo) | λAbs (max) ([3]; Apo) [nm] | λEm (max) ([3]; Apo) [nm] | Brightness (ε*Φ/1000) ([3]; Zn-bound) | Extinction Coefficient (ε) ([3]; Zn-bound) | Quantum Yield (Φ) ([3]; Zn-bound) | λAbs (max) ([3]; Zn-bound) [nm] | λEm (max) ([3]; Zn-bound) [nm] | Stokes shift ([3]; literature (Ref. A18)) [nm]
1 | CC(=O)NCCOc1ccc2n1[B-](F)(F)[N+]1=C(N(CCN(Cc3ccccn3)Cc3ccccn3)Cc3ccccn3)C=CC1=C2c1c(C)cc(C)cc1C [ZincBY-4, N-(2-((7-((2-(bis(pyridin-2-ylmethyl)amino)ethyl)(pyridin-2-ylmethyl)amino)-5,5-difluoro-10-mesityl-5H-5λ4,6λ4-dipyrrolo[1,2-c:2′,1′-f][1,3,2]diazaborinin-3-yl)oxy)ethyl)acetamide] | 40 | 7 | 97 | 83 | does not change | does change in response to dielectric constant | 575 | does not change as the dielectric constant changes |  |  |  |  |  |  |  |  |  |  | 
2 | COc1ccc2n1[B-](F)(F)[N+]1=C(N(CCN(Cc3ccccn3)Cc3ccccn3)Cc3ccccn3)C=CC1=C2c1c(C)cc(C)cc1C [ZincBY-1, reference compound] |  |  |  |  |  |  |  |  | 0.57(6) M^−1cm^−1 | 1.1(0.05) × 10^4 M^−1cm^−1 | 0.052(3) | 533 | 560 | 2.6(5) M^−1cm^−1 | 2.0(3) × 10^4 M^−1cm^−1 | 0.13(2) | 533 | 543 | 11

From patent US11953435B2, “Zinc-responsive fluorophores” (Northwestern University, priority 2019, dated 2024)
